Measured values as given in PubChem BioAssay AID248 (DTP/NCI, 2004).
Inconclusive results and toxic doses are left out. Cut-off read from the data, not from the text of the source: active = T/C of 150% or more; inactive = T/C below 125%.

System: L1210 leukemia ip in BDF1 mice, survival T/C
Assay: NCI In Vivo Anticancer Drug Screen. Data for tumor model L1210 Leukemia (intraperitoneal) in B6D2F1 (BDF1) mice
Conditions: endpoint: mean survival time, higher = longer survival
Method in brief: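 Tumor was transplanted into mice, which were then dosed with test compound or vehicle alone. Survival was recorded for each group, and the treated figure was expressed relative to the control figure.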

[1] = dose: 100.0 mg/kg/injection, schedule: Q01DX001 (ip), vehicle: saline
[2] = dose: 200.0 mg/kg/injection, schedule: Q01DX001 (ip), vehicle: saline
[3] = dose: 400.0 mg/kg/injection, schedule: Q01DX001 (ip), vehicle: saline
[4] = dose: 100.0 mg/kg/injection, schedule: Q04DX002 (ip), vehicle: Klucel (hydroxypropylcellulose) (HPC)
[5] = dose: 50.0 mg/kg/injection, schedule: Q01DX009 (ip), vehicle: saline with Tween-80
[6] = dose: 100.0 mg/kg/injection, schedule: Q01DX009 (ip), vehicle: saline with Tween-80
[7] = dose: 200.0 mg/kg/injection, schedule: Q01DX009 (ip), vehicle: saline with Tween-80
[8] = dose: 400.0 mg/kg/injection, schedule: Q01DX009 (ip), vehicle: saline with Tween-80

Measured: T/C

CC[PH+]1c2ccccc2-c2ccccc21.CC[PH+]1c2ccccc2-c2ccccc21.CC[PH+]1c2ccccc2-c2ccccc21.[Br][Ni][Br]
inactive: dose: 12.5 mg/kg/injection, schedule: Q04DX003 (ip), vehicle: saline with Tween-80 98 % of control | dose: 25.0 mg/kg/injection, schedule: Q04DX003 (ip), vehicle: saline with Tween-80 98 % of control | dose: 50.0 mg/kg/injection, schedule: Q04DX003 (ip), vehicle: saline with Tween-80 102 % of control

CN(C)C(=O)c1cc(C(=O)N(C)C)c[n+](Cc2c(Cl)cccc2Cl)c1
inactive: dose: 18.75 mg/kg/injection, schedule: Q01DX009 (ip), vehicle: saline 95 % of control | dose: 37.5 mg/kg/injection, schedule: Q01DX009 (ip), vehicle: saline 95 % of control | dose: 75.0 mg/kg/injection, schedule: Q01DX001 (ip), vehicle: saline 97 % of control | dose: 75.0 mg/kg/injection, schedule: Q01DX009 (ip), vehicle: saline 94 % of control | dose: 75.0 mg/kg/injection, schedule: Q04DX003 (ip), vehicle: saline 100 % of control | dose: 150.0 mg/kg/injection, schedule: Q01DX001 (ip), vehicle: saline 106 % of control | dose: 150.0 mg/kg/injection, schedule: Q04DX003 (ip), vehicle: saline 96 % of control | dose: 300.0 mg/kg/injection, schedule: Q01DX001 (ip), vehicle: saline 104 % of control

CC(=O)OC1CCCc2c(O)c3c(c(O)c21)C(=O)c1ccccc1C3=O (stereo not given)
inactive: [1] 93 % of control | [2] 93 % of control | [3] 91 % of control

Nc1ncnc2nc(-c3ccccc3)[nH]c12
inactive: dose: 25.0 mg/kg/injection, schedule: Q04DX002 (ip), vehicle: Klucel (hydroxypropylcellulose) (HPC) 102 % of control | dose: 50.0 mg/kg/injection, schedule: Q04DX002 (ip), vehicle: Klucel (hydroxypropylcellulose) (HPC) 94 % of control | [4] 91 % of control

CS(=O)CCCC(=O)O (stereo not given)
inactive: dose: 100.0 mg/kg/injection, schedule: Q01DX001 (ip), vehicle: saline with Tween-80 102 % of control | dose: 200.0 mg/kg/injection, schedule: Q01DX001 (ip), vehicle: saline with Tween-80 94 % of control | dose: 400.0 mg/kg/injection, schedule: Q01DX001 (ip), vehicle: saline with Tween-80 97 % of control

CC(=O)NC1CCCC(OC(C)=O)C1 (stereo not given)
inactive: [5] 88 % of control | [6] 91 % of control

COc1ccc2c(c1)CC=CO2
inactive: dose: 100.0 mg/kg/injection, schedule: Q01DX001 (ip), vehicle: carboxymethylcellulose (CMC) 107 % of control | dose: 200.0 mg/kg/injection, schedule: Q01DX001 (ip), vehicle: carboxymethylcellulose (CMC) 94 % of control | dose: 400.0 mg/kg/injection, schedule: Q01DX001 (ip), vehicle: carboxymethylcellulose (CMC) 100 % of control

CCOC(=O)C(O)(NC(=O)N/N=C/c1ccccc1)C(=O)OCC
inactive: [6] 101 % of control | dose: 100.0 mg/kg/injection, schedule: Q04DX003 (ip), vehicle: saline with Tween-80 106 % of control | [7] 92 % of control | dose: 200.0 mg/kg/injection, schedule: Q04DX003 (ip), vehicle: saline with Tween-80 104 % of control | [8] 93 % of control | dose: 400.0 mg/kg/injection, schedule: Q04DX003 (ip), vehicle: saline with Tween-80 101 % of control

COC(=O)C1C(O)C(C)C(O)C(C)C=C(C)C2=C3C(=C(C)C(=O)c4c(O)c(c(C)c(OC(C)=O)c43)NC(=O)C(C)=C/C=C\C(C)C(O)C(C)C1O)OCO2 (stereo not given)
inactive: dose: 20.0 mg/kg/injection, schedule: Q01DX009 (ip), vehicle: saline 105 % of control | dose: 40.0 mg/kg/injection, schedule: Q01DX009 (ip), vehicle: saline 100 % of control | dose: 80.0 mg/kg/injection, schedule: Q01DX009 (ip), vehicle: saline 102 % of control | [4] 96 % of control | dose: 160.0 mg/kg/injection, schedule: Q01DX009 (ip), vehicle: saline 107 % of control | dose: 200.0 mg/kg/injection, schedule: Q04DX002 (ip), vehicle: Klucel (hydroxypropylcellulose) (HPC) 90 % of control

S=c1[nH]c2nccnc2[nH]1
inactive: dose: 25.0 mg/kg/injection, schedule: Q01DX009 (ip), vehicle: saline with Tween-80 96 % of control | [5] 96 % of control | [6] 93 % of control | [7] 97 % of control | [8] 104 % of control

CCOC(=O)CC(c1ccccc1)C(C(=O)OCC)C(=O)OCC (stereo not given)
inactive: [1] 106 % of control | [2] 103 % of control | [3] 103 % of control
